Reference: patent publication US20120122860A1, “SOLID FORMS OF SULFONAMIDES AND AMINO ACIDS” (Plexxikon, Inc., priority 2009, published 2012)

Columns and labels:
Kdr = Kdr (Homo sapiens, UniProt P35968); experiment: Kinase activity assay, Kdr
Fms = Fms (Homo sapiens, UniProt P07333); experiment: Kinase activity assay, Fms
B-Raf = B-Raf (Homo sapiens, UniProt P15056); experiment: Kinase activity assay, B-Raf; assay type: biochemical; conditions: read-out: activity toward kinase B-Raf, IC50
B-Raf V600E = B-Raf V600E (Homo sapiens, UniProt P15056, V600E); experiment: Kinase activity assay, B-Raf V600E; assay type: biochemical; conditions: read-out: activity toward kinase B-Raf V600E, IC50
Src = Src (Homo sapiens, UniProt P12931); experiment: Kinase activity assay, Src
Kit = Kit (Homo sapiens, UniProt P10721); experiment: Kinase activity assay, Kit

Measured: IC50

Sequence of Kdr (P35968 20-1356): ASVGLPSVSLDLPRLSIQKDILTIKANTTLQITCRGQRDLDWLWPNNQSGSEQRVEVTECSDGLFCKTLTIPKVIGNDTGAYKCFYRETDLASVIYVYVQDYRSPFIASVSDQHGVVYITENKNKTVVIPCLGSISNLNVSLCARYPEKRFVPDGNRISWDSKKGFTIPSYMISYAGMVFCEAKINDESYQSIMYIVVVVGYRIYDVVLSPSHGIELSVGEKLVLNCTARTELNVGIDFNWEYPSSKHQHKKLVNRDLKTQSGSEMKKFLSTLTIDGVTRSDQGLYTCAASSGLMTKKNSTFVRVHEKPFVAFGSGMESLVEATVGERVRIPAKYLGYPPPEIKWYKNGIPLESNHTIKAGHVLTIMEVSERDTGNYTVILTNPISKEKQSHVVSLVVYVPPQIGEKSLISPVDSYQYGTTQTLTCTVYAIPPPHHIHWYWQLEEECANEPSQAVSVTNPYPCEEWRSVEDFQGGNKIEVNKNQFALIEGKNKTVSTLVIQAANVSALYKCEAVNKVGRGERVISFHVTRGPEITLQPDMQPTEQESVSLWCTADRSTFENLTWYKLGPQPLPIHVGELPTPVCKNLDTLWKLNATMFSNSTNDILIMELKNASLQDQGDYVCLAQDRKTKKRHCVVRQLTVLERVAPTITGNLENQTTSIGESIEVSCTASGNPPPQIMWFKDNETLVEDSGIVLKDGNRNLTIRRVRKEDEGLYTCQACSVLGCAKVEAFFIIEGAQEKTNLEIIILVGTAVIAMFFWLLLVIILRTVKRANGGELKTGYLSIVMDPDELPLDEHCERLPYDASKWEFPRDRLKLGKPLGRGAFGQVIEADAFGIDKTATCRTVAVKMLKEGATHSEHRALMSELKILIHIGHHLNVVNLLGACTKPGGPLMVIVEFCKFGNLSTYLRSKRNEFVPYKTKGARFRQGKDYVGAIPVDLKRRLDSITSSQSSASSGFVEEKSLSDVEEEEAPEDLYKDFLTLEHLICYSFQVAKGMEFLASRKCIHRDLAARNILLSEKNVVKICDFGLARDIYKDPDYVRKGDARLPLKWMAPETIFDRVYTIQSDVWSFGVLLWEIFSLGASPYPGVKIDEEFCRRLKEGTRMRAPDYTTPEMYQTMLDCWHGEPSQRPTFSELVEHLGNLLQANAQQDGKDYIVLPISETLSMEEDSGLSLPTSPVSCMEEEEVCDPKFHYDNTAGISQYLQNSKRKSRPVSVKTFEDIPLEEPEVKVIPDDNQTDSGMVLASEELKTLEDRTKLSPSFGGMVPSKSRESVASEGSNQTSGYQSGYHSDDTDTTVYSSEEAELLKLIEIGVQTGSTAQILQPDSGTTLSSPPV
Sequence of Kit (P10721 26-976): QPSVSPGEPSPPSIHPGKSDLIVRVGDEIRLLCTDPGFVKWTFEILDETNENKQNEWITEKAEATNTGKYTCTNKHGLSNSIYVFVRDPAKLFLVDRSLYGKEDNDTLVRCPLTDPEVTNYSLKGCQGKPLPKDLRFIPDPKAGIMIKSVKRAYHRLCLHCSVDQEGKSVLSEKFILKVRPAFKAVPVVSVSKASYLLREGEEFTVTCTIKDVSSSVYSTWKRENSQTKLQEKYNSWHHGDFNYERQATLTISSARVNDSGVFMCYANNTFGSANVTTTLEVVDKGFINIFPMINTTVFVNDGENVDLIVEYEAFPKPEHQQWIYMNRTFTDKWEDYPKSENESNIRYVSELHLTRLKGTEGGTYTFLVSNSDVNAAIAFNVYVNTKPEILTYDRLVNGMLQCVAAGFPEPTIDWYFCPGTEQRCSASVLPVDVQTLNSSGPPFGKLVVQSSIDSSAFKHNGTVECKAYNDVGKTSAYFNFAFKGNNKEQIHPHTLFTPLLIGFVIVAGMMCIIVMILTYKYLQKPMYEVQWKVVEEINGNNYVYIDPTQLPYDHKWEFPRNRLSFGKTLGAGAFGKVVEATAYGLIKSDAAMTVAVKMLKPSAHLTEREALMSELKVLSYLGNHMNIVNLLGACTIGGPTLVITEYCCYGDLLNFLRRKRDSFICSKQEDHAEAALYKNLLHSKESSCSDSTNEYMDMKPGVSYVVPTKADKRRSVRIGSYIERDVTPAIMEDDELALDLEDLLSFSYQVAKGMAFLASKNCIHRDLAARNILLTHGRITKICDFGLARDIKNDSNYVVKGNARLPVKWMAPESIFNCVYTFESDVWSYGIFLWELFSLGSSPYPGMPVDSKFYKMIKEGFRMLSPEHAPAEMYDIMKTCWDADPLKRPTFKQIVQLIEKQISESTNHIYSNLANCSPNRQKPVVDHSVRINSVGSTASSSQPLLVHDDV
Sequence of Fms (P07333 20-972): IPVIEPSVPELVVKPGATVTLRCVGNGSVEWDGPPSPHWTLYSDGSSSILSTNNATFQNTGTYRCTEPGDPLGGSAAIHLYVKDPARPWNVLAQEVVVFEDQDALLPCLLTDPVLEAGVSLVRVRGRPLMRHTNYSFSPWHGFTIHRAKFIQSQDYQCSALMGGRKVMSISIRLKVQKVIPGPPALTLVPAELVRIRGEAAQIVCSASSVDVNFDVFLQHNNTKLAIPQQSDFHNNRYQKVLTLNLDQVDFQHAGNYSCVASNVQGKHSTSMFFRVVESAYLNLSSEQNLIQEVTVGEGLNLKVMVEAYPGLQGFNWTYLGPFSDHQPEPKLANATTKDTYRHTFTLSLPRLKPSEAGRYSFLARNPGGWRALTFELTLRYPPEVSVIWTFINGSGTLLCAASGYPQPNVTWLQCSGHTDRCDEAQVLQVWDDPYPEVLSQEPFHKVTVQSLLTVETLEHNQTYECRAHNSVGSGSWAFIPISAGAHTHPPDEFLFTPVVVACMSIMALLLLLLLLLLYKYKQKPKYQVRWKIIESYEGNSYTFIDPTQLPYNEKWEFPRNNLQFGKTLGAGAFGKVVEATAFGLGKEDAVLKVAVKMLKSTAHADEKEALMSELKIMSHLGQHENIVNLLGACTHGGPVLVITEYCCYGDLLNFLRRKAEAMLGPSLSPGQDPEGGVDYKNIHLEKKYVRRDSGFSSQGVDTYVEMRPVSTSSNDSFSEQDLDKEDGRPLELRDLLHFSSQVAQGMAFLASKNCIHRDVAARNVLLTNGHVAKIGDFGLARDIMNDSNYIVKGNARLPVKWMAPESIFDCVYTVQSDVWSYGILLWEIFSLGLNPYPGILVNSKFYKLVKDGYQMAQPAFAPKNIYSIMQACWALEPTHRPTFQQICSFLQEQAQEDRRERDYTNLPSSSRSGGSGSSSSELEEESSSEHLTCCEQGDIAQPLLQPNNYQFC
Sequence of B-Raf (P15056 whole entry): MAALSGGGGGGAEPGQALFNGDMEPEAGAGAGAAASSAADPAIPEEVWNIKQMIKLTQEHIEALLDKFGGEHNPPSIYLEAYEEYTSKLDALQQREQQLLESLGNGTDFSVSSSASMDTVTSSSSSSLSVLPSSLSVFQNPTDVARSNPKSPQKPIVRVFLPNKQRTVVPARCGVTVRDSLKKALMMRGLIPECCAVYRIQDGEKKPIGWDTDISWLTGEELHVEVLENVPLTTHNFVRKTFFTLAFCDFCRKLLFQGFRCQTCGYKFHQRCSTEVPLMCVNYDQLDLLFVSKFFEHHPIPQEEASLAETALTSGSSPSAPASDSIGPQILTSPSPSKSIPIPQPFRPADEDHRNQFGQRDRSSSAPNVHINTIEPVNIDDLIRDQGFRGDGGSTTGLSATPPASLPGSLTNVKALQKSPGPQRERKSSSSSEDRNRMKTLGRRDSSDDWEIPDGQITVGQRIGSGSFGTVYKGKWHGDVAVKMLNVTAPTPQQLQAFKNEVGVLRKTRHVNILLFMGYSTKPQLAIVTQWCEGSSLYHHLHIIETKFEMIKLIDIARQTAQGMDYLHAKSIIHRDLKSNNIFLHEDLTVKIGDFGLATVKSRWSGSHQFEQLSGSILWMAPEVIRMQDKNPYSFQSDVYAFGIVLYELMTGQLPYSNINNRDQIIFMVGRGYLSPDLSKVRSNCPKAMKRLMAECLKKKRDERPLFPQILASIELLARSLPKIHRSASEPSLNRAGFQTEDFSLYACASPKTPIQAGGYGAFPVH
Sequence of Src (P12931 whole entry): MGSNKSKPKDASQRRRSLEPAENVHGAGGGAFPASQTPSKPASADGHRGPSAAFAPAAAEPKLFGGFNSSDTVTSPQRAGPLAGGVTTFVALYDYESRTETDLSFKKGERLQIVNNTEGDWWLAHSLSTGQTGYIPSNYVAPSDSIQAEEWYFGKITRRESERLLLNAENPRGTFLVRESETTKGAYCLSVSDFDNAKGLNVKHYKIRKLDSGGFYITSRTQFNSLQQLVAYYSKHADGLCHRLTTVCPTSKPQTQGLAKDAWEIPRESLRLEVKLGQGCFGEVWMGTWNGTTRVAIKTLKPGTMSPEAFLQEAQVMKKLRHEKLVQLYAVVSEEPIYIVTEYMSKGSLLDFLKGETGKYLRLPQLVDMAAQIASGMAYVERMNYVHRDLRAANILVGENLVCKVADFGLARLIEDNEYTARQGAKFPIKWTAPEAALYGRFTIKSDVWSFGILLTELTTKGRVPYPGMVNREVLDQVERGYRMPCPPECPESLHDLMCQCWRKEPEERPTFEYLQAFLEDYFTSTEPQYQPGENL
Sequence of B-Raf V600E (P15056 whole entry V600E): as the sequence (P15056 whole entry) above, with V600E counted along it

CCCS(=O)(=O)Nc1ccc(F)c(C(=O)c2c[nH]c3ncc(-c4ccc(C(=O)NC5CC5)nc4)cc23)c1F [P-2181, 5-{3-[2,6-Difluoro-3-(propane-1-sulfonylamino)-benzoyl]-1H-pyrrolo[2,3-b]pyridin-5-yl}-pyridine-2-carboxylic acid cyclopropylamide]
≤ 10 µM: all assays above

CCCS(=O)(=O)Nc1ccc(F)c(C(=O)c2c[nH]c3ncc(-c4ccc(SC)nc4)cc23)c1F [P-2187]
≤ 10 µM: all assays above

CCCS(=O)(=O)Nc1ccc(F)c(C(=O)c2c[nH]c3ncc(-c4ccnc(F)c4)cc23)c1F [P-2192, Propane-1-sulfonic acid {2,4-difluoro-3-[5-(2-fluoro-pyridin-4-yl)-1H-pyrrolo[2,3-b]pyridine-3-carbonyl]-phenyl}-amide]
≤ 10 µM: all assays above

CCCS(=O)(=O)Nc1ccc(F)c(C(=O)c2c[nH]c3ncc(O)cc23)c1F [P-2204, Propane-1-sulfonic acid [2,4-difluoro-3-(5-hydroxy-1H-pyrrolo[2,3-b]pyridine-3-carbonyl)-phenyl]-amide]
≤ 10 µM: all assays above

CCS(=O)(=O)Nc1ccc(F)c(C(=O)c2c[nH]c3ncc(Br)cc23)c1F [P-2268, Ethanesulfonic acid [3-(5-bromo-1H-pyrrolo[2,3-b]pyridine-3-carbonyl)-2,4-difluoro-phenyl]-amide]
≤ 10 µM: all assays above

CC(C)CS(=O)(=O)Nc1ccc(F)c(C(=O)c2c[nH]c3ncc(-c4ccc(F)cc4)cc23)c1F [P-2298, 2-Methyl-propane-1-sulfonic acid {2,4-difluoro-3-[5-(4-fluoro-phenyl)-1H-pyrrolo[2,3-b]pyridine-3-carbonyl]-phenyl}-amide]
≤ 10 µM: all assays above

O=C(c1c(F)ccc(NS(=O)(=O)CCC(F)(F)F)c1F)c1c[nH]c2ncc(-c3ccc(F)cc3)cc12 [P-2326, 3,3,3-Trifluoro-propane-1-sulfonic acid {2,4-difluoro-3-[5-(4-fluoro-phenyl)-1H-pyrrolo[2,3-b]pyridine-3-carbonyl]-phenyl}-amide]
≤ 10 µM: all assays above

O=C(c1c(F)ccc(NS(=O)(=O)CC(F)(F)F)c1F)c1c[nH]c2ncc(Br)cc12 [P-2334, 2,2,2-Trifluoro-ethanesulfonic acid [3-(5-bromo-1H-pyrrolo[2,3-b]pyridine-3-carbonyl)-2,4-difluoro-phenyl]-amide]
≤ 10 µM: all assays above
